Results as given in patent US6350740B1, “Transplatinum complexes as cytotoxic and anticancer agents” (Virginia Commonwealth University, priority 2000, dated 2002).
pIC50: −log10 of the molar value. Read-outs that look alike come from different tables or passages of the source.

Assays:
Daudi = assay: Cytotoxicity by cell proliferation, Daudi cells; format: cell-based; settings: read-out: IC50 for indicated cell line Daudi
Procedure: (§1) The cytotoxicity of the novel trans-platinum compounds was assayed through the standard protocols of the NCI Developmental Therapeutics (HIV) and NIAID (Herpes Viruses) Screening Programs.
(§2) http://www.niaid.nih.gov/dmid/apdsame.html. IC50 is cytotoxic dose in cell carriers.
(§3) The cytotoxicity of several nucleobase compounds of the general formula SP-4-2-[PtX(L)(L′)(B)]^+ was assessed and the results are given in Table I. The cell lines employed were human foreskin fibroblast (HFF), Daudi, and CEM-SS, a T-cell line typically used to csrry snd maintain human imnmunodefficiency virus (HIV). The lC50 values for HFF and Dsudi cell lines were determined by cell proliferation as referenced above. The IC50 values for the CEM-SS cell line was determined by XTT colorimetric assays as referenced above.

[1] = test system: human foreskin fibroblast (HFF); assay: Cytotoxicity by cell proliferation, HFF cells; format: cell-based; settings: read-out: IC50 for indicated cell line HFF
Procedure: as §1, §2, §3

CEM-SS, a T-cell line = assay: Cytotoxicity by XTT colorimetric assay, CEM-SS cells; format: cell-based; settings: read-out: IC50 for indicated cell line CEM-SS
Procedure: as §1, §2, §3

[2] = Water-solubility compared with the parent compound; format: physicochemical; settings: statement in words, no values
L1210 Leukemia [3] = settings: murine L1210 leukemia; J. Med. Chem. 32:2240; cited from earlier work
L1210 Leukemia [4] = settings: for in vivo antitumor activity: murine L1210 leukemia
Source text: b: %T/C is % average survival in days of treated animals/average survival in days of control animals. All tests performed as reported in references in a above. 50×3 refers to dose (mg/kg) and schedule (drug injection at 1,5,9 days after tumor inoculation).

A 2780 = A 2780 cells

Compound | pIC50 (Daudi) | pIC50 [1] | pIC50 (CEM-SS, a T-cell line; first CEM-SS column) | pIC50 (CEM-SS, a T-cell line; second CEM-SS column) | other results
CCn1c[n+]([Pt-2]([NH2])([NH3+])[Cl])c2c(=O)[nH]c(N)nc21 (stereo not drawn) [Compound 1, trans-[PtCl(9-ethylguanine)(NH3)2]^+] | 5.10 | 4.72 |  |  | 
CCn1c[n+]([Pt-2]([NH2])([Cl])[n+]2ccsc2)c2c(=O)[nH]c(N)nc21 (centres unmarked) [Compound 2, SP-4-2-[PtCl(9-ethylguanine)(NH3)(thiazole)]^+] | 4.74 | 4.95 | 4.33 | 4.61 | 
CCn1c[n+]([Pt-2]([NH2])([Cl])[n+]2cccc3ccccc32)c2c(=O)[nH]c(N)nc21 (centres unmarked) [Compound 4] | 6.03 | 4.59 | 4.32 | 4.50 | 
CCn1c[n+]([Pt-2]([NH2])([Cl])[n+]2ccc3ccccc3c2)c2c(=O)[nH]c(N)nc21 (centres unmarked) [Compound 5, SP-4-2-[PtCl(9-ethylguanine)(NH3)(isoquinoline)]^+] | 5.32 | 5.55 |  |  | 
CCn1c[n+]([Pt-2]([Cl])([n+]2ccc(C)cc2)[n+]2ccc(C)cc2)c2c(=O)[nH]c(N)nc21 [Compound 6, trans-[PtCl(9-ethylguanine) (4-picoline)2]^+] | 6.04 | 4.66 | 5.72 | 5.70 | water-solubility and bioavailability versus parent trans-[PtCl2(4-pic)2] [2]: significant water-solubility and bioavailability over the parent compound
Cn1ccc(N)[n+]([Pt-2]([NH2])([Cl])[n+]2cccc3ccccc32)c1=O (centres unmarked) [Compound 9, SP-4-2-[PtCl(1-methylcytosine)(NH3)(quinoline)]^+] | 4.85 | 4.41 | 4.30 | 4.48 | 
Cn1ccc(N)[n+]([Pt-2]([NH2])([Cl])[n+]2ccc3ccccc3c2)c1=O (centres unmarked) [Compound 10, SP-4-2-[PtCl(1-methylcytosine)(NH3)(isoquinoline)]^+] | 4.67 | < 4.25 |  |  | 
[Cl][Pt][Cl].c1ccncc1.c1ccncc1 [trans-[PtCl2(pyridine)2], reference compound] |  |  |  |  | in vivo antitumor activity, previously reported (L1210 Leukemia [3]): totally inactive; L1210 Leukemia % T/C (L1210 Leukemia [4]; 50 × 2: 50 mg/kg, injected twice only): 106 (50 × 2) %; in vivo antitumor activity (L1210 Leukemia [4]): no activity; A 2780 IC50 (A 2780): 0.2 µg/mL
SP-4-2-[PtCl(1-methylcytosine)(NH3)(thiazole)] [Compound 8] |  | < 4.28 |  |  | 
SP-4-2-[PtCl(9-ethylguanine) (NH3)(benzothiazole)]^+ [Compound 3] | 5.01 | 4.95 |  |  | 
trans-[PtCl(1-methylcytosine)(NH3)2]^+ [Compound 7] | 4.82 | < 4.34 |  |  | 
trans-[PtCl(Me2SO)(pyridine)2]^+ |  |  |  |  | L1210 Leukemia % T/C (L1210 Leukemia [4]; 50 × 3: 50 mg/kg, injection at 1,5,9 days after tumor inoculation, T/C >150% indicative of activity): 155 (50 × 3) %; in vivo antitumor activity (L1210 Leukemia [4]): some antitumor activity; A 2780 IC50 (A 2780): 0.3 µg/mL
